One may read the IC50 as the concentration that gives 50% inhibition. As a reminder, the inhibition is the drop in the measured response relative to a control, in per cent.

In assay [1] the target is T1, cloned human 5-HT1A receptors (Homo sapiens, UniProt P08908).
T1 construct: expressed in transfected cells; host or cells: HeLa cells (HA7), stably transfected; cell homogenate
T1 sequence (P08908 1-422): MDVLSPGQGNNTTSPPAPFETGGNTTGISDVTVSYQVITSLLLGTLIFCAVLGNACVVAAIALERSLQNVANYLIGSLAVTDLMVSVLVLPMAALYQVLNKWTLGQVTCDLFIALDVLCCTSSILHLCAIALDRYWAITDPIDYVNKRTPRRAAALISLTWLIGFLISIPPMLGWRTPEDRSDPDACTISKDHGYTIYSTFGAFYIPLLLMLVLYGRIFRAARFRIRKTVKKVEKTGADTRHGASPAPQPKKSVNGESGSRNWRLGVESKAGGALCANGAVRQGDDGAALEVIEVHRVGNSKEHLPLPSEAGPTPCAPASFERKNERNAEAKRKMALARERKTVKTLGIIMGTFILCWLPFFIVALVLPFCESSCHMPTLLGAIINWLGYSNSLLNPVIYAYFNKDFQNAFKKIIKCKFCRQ
The assay can be described thus: Inhibition of 3H-5-CT binding to human 5-HT1A receptors. The following applies: cloned human 5-HT1A receptors expressed in HeLa cells (HA7). The procedure: Inhibition of ^3H-5CT Binding to Human 5-HT1A Receptors
Human 5-HT1A receptors (40 μg of cell homogenate) were incubated for 15 minutes at 37° C. in 50 mM Tris buffer at pH 7.7 in the presence of ^3H-5-CT. Non-specific binding was determined by including 10 μM of metergoline. The reaction was terminated by rapid filtration through Unifilter GF/B filters on a Tomtec Cell Harvester. Filters were counted in a Packard Top Counter.

Assay [2] deals with serotonin reuptake (3H-5-HT uptake into whole rat brain synaptosomes). The assay can be described thus: Inhibition of 3H-5-HT uptake into rat brain synaptosomes. The assay is classed as biochemical. The method, then:
Inhibition of ^3H-5HT Uptake Into Rat Brain Synaptosomes
Using this method, the ability of drugs to inhibit the accumulation of ^3H-5-HT into whole rat brain synaptosomes is determined in vitro.

As to `C=CCN(CCCC1(c2ccc(F)cc2)OCc2cc(C#N)ccc21)CCc1cc(OC)ccc1OC` (centres unmarked) [Compound 4f, 1-[3-[[2-(2,5-Dimethoxyphenyl)ethyl](prop-2-en-1-yl)amino]propyl]-1-(4-fluorophenyl)-1,3-dihydroisobenzofuran-5-carbonitrile], in assay [1], the IC50 turned out to be 1.6 nM. Further, the “Inhibition of serotonin reuptake % inhibition at 100 nM” value in assay [2] amounted to 4% inh. at 100 nM.

As to `CN(CCCC1(c2ccc(F)cc2)OCc2cc(C#N)ccc21)CCOc1ccccc1` (centres unmarked) [Compound 4g, 1-(4-Fluorophenyl)-1-[3-[[2-phenoxyethyl]methylamino]propyl]-1,3-dihydroisobenzofuran-5carbonitrile], the IC50 in assay [1] was determined as 18 nM. The “Inhibition of serotonin reuptake % inhibition at 100 nM” value in assay [2] is given as 28% inh. at 100 nM.

Consider `C=CCN(CCCC1(c2ccc(F)cc2)OCc2cc(C#N)ccc21)CCc1c[nH]c2ccccc12` (centres unmarked) [Compound 4h, 1-[3-[[2-(1H-Indolyl-3-yl)ethyl](prop-2-en-1-yl)amino]propyl]-1-(4-fluorophenyl) 1,3-dihydroisobenzofuran-5carbonitrile], for which the results for the IC50 in assay [1] and in assay [2] were 3.2 nM and 69 nM, respectively.

Take `C=CCN(CCCC1(c2ccc(F)cc2)OCc2cc(C#N)ccc21)CCOc1ccccc1` (centres unmarked) [Compound 4i, 1-(4-Fluorophenyl)-1-[3-[[2-phenoxyethyl](prop-2-en-1-yl)amino]propyl]-1,3-dihydroisobenzofuran-5carbonitrile]: the IC50 in assay [1] turned out to be 1.9 nM. The “Inhibition of serotonin reuptake % inhibition at 100 nM” value in assay [2] came out at 26% inh. at 100 nM.

In the case of `COc1ccccc1CCCN(C)CCCC1(c2ccc(F)cc2)OCc2cc(C#N)ccc21` (centres unmarked) [Compound 4j, 1-(4Fluorophenyl)-1-[3-[[3-(2-methoxyphenyl)propyl]methylamino]propyl]-1,3-dihydroisobenzofuran-5-carbonitrile], the IC50 in assay [1] worked out at 6.1 nM; in assay [2] it was 78 nM.

For `C=CCN(CCCc1ccccc1OC)CCCC1(c2ccc(F)cc2)OCc2cc(C#N)ccc21` (centres unmarked) [Compound 4k, 1-(4-Fluorophenyl)-1-[3-[[3-(2-methoxyphenyl)propyl](prop-2-en-1-yl)amino]propyl]-1,3-dihydroisobenzofuran-5-carbonitrile], the 50% inhibitory concentration (IC50) in assay [1] is 0.42 nM; in assay [2] it was 100 nM.

In assay [1], `C=CCN(CCCOc1ccccc1OC)CCCC1(c2ccc(F)cc2)OCc2cc(C#N)ccc21` (centres unmarked) [Compound 4n, 1-(4-Fluorophenyl)-1-[3-[[3-(2-methoxyphenoxy)propyl](prop-2-en-1-yl)amino]propyl]-1,3-dihydroisobenzofuran-5-carbonitrile] came in with a concentration for half-maximal inhibition (IC50) of 14 nM. Besides, the “Inhibition of serotonin reuptake % inhibition at 100 nM” value in assay [2] was found to be 39% inh. at 100 nM.

With `COc1cccc(OCCCN(C)CCCC2(c3ccc(F)cc3)OCc3cc(C#N)ccc32)c1` (centres unmarked) [Compound 4o, 1-(4-Fluorophenyl)-1-[3-[[3-(3-methoxyphenoxy)propyl]methylamino]propyl]-1,3-dihydroisobenzofuran-5-carbonitrile], the IC50 in assay [1] came out at 26 nM; in assay [2], 73 nM.

`C=CCN(CCCOc1cccc(OC)c1)CCCC1(c2ccc(F)cc2)OCc2cc(C#N)ccc21` (centres unmarked) [Compound 4p] yielded an IC50 in assay [1] of 19 nM. The “Inhibition of serotonin reuptake % inhibition at 100 nM” value in assay [2] was found to be 6% inh. at 100 nM.

On to `CN(CCCC1(c2ccc(F)cc2)OCc2cc(C#N)ccc21)CCOCc1ccccc1` (centres unmarked) [Compound 4q, 1-[3-[(2-Benzyloxyethyl)methylamino]propyl]-1-(4-fluorophenyl)-1,3-dihydroisobenzofuran-5-carbonitrile], for which the IC50 in assay [1] was 16 nM. In addition, the “Inhibition of serotonin reuptake % inhibition at 100 nM” value in assay [2] is given as 60% inh. at 100 nM.

Take `C=CCN(CCCC1(c2ccc(F)cc2)OCc2cc(C#N)ccc21)CCOCc1ccccc1` (centres unmarked) [Compound 4r, 1-[3-[(2-Benzyloxyethyl)(prop-2-en-1-yl)amino]propyl]-1-(4-fluorophenyl)-1,3-dihydroisobenzofuran-5-carbonitrile]: in assay [1], the concentration for half-maximal inhibition (IC50) was 11 nM. For the same compound, in assay [2], the “Inhibition of serotonin reuptake % inhibition at 100 nM” value turned out to be 19% inh. at 100 nM.

Turning to `CN(CCCc1c[nH]c2ccccc12)CCCC1(c2ccc(F)cc2)OCc2cc(C#N)ccc21` (centres unmarked) [Compound 4s, 1-[3-[[3-(1H-Indol-3-yl)propyl]methylamino]propyl]-1-(4-fluorophenyl)-1,3-dihydroisobenzofuran-5-carbonitrile], the IC50 was 30 nM in assay [1] and 35 nM in assay [2].

In the case of `C=CCN(CCCc1c[nH]c2ccccc12)CCCC1(c2ccc(F)cc2)OCc2cc(C#N)ccc21` (centres unmarked) [Compound 4t, 1-[3-[[3-(1H-Indol-3-yl)propyl](prop-2-en-1-yl)amino]propyl]-1-(4-fluorophenyl)-1,3-dihydroisobenzofuran-5-carbonitrile], the inhibition at 0.1 µM in assay [1] (read-out: Inhibition of 3H-5-CT binding % inhibition at 100 nM, at 100 nM) came out at 69%. Besides, in assay [2], the “Inhibition of serotonin reuptake % inhibition at 100 nM” value is listed as 73% inh. at 100 nM.

For `CN(CCCc1c[nH]c2ccc(Br)cc12)CCCC1(c2ccc(F)cc2)OCc2cc(C#N)ccc21` (centres unmarked) [Compound 12aa, 1-[3-[[3-(5-Bromo-1H-indol-3-yl)propyl]methylamino]propyl]-1-(4-fluorophenyl)-1,3-dihydroisobenzofuran-5-carbonitrile], in assay [1], the IC50 is 16 nM. Further, in assay [2], the “Inhibition of serotonin reuptake % inhibition at 100 nM” value is 37% inh. at 100 nM.

As to `CCN(CCCC1(c2ccc(F)cc2)OCc2cc(C#N)ccc21)CCc1c[nH]c2ccc(Br)cc12` (centres unmarked) [Compound 12ab, 1-[3-[[2-(5-Bromo-1H-indol-3-yl)ethyl]ethylamino]propyl]-1-(4-fluorophenyl)-1,3-dihydroisobenzofuran-5-carbonitrile], in assay [1], the IC50 is 20 nM. Moreover, in assay [2], the “Inhibition of serotonin reuptake % inhibition at 100 nM” value stood at 50% inh. at 100 nM.

For the compound `CCN(CCCc1c[nH]c2ccc(Br)cc12)CCCC1(c2ccc(F)cc2)OCc2cc(C#N)ccc21` (centres unmarked) [Compound 12ad, 1-(3-[[3-(5-Bromo-1H-indol-3-yl)propyl]ethylamino]propyl]-1-(4fluorophenyl)-1,3-dihydroisobenzofuran-5-carbonitrile], the IC50 in assay [1] worked out at 21 nM. Also, in assay [2], the “Inhibition of serotonin reuptake % inhibition at 100 nM” value is 35% inh. at 100 nM.

In turn, `CCN(CCCC1(c2ccc(F)cc2)OCc2cc(C#N)ccc21)CCc1c[nH]c2ccc(I)cc12` (centres unmarked) [Compound 12ae] yielded an IC50 in assay [1] of 11 nM. In assay [2], the “Inhibition of serotonin reuptake % inhibition at 100 nM” value is reported as 49% inh. at 100 nM.

Regarding `CCN(CCCc1c[nH]c2ccc(I)cc12)CCCC1(c2ccc(F)cc2)OCc2cc(C#N)ccc21` (centres unmarked) [Compound 12af, 1-[3-[Ethyl[3-(5-iodo-1H-indol-3-yl)propyl]amino]propyl]-1-(4-fluorophenyl)-1,3-dihydroisobenzofuran-5-carbonitrile], in assay [1], the IC50 was determined as 31 nM. The “Inhibition of serotonin reuptake % inhibition at 100 nM” value in assay [2] stood at 38% inh. at 100 nM.

`Cc1ccc2[nH]cc(CCCN(C)CCCC3(c4ccc(F)cc4)OCc4cc(F)ccc43)c2c1` (centres unmarked) [Compound 12c, 5-Fluoro-1-[3-[[3-(5-methyl-1H-indol-3-yl)propyl]methylamino]propyl]-1-(4-fluorophenyl)-1,3-dihydroisobenzofuran]: the IC50 in assay [1] turned out to be 19 nM; in assay [2], 17 nM.

In the case of `CN(CCCc1c[nH]c2c(F)cccc12)CCCC1(c2ccc(F)cc2)OCc2cc(F)ccc21` (centres unmarked) [Compound 12d, 5-Fluoro-1-[3-[[3-(7-fluoro-1H-indol-3-yl)propyl]methylamino]propyl]-1-(4-fluorophenyl)-1,3dihydroisobenzofuran], the IC50 in assay [1] was 31 nM; in assay [2], 12 nM.

For `CCN(CCCc1c[nH]c2ccccc12)CCCC1(c2ccc(F)cc2)OCc2cc(C#N)ccc21` (centres unmarked) [Compound 12f], the 50% inhibitory concentration (IC50) in assay [1] was 4.7 nM; in assay [2], 13 nM.

For `CN(CCCc1c[nH]c2ccc(F)cc12)CCCC1(c2ccc(F)cc2)OCc2cc(C#N)ccc21` (centres unmarked) [Compound 12i, 1-[3-[[3-(5-Fluoro-1H-indol-3-yl)propyl]methylamino]propyl]-1-(4-fluorophenyl)-1,3-dihydroisobenzofuran-5-carbonitrile], the IC50 in assay [1] amounted to 27 nM; in assay [2] it was 20 nM.

For the compound `CCN(CCCC1(c2ccc(F)cc2)OCc2cc(C#N)ccc21)CCc1c[nH]c2ccc(F)cc12` (centres unmarked) [Compound 12j, 1-[3-[Ethyl[2-(5-fluoro-1H-indol-3-yl)ethyl]amino]propyl]-1-(4fluorophenyl)-1,3-dihydroisobenzofuran-5-carbonitrile], the IC50 in assay [1] came to 7.9 nM; in assay [2], 14 nM.

`CCN(CCCC1(c2ccc(F)cc2)OCc2cc(C#N)ccc21)CCc1c[nH]c2c(F)cccc12` (centres unmarked) [Compound 12k]: the IC50 was 3.6 nM in assay [1] and 8.4 nM in assay [2].

`CCN(CCCc1c[nH]c2ccc(C)cc12)CCCC1(c2ccc(F)cc2)OCc2cc(C#N)ccc21` (centres unmarked) [Compound 12o, 1-[3-[Ethyl[3-(5-methyl-1H-indol-3-yl)propyl]amino]propyl]-1-(4-fluorophenyl)-1,3-dihydroisobenzofuran-5-carbonitrile]: in assay [1], the IC50 worked out at 6.2 nM. For the same compound, the “Inhibition of serotonin reuptake % inhibition at 100 nM” value in assay [2] is on record as 49% inh. at 100 nM.
